Experimental data as given in ChEMBL document CHEMBL5370578, “Discovery of a potent, orally available tricyclic derivative as a novel BRD4 inhibitor for melanoma” (Bioorg Med Chem, 2023).

Key:
[1] = Stability in human liver microsomes assessed as intrinsic clearance measured per mg protein
[2] = Stability in mouse liver microsomes assessed as intrinsic clearance measured per mg protein
[3] = target: T1, Bromodomain-containing protein 4 (Homo sapiens, UniProt O60885); test: Displacement of Biotin-tagged [Lys(5,8,12,16)Ac]H4(1 to 21) peptide from GST-tagged BRD4-BD1 (unknown origin) incubated for 3 hrs by HTRF based TR-FRET assay
[4] = Apparent permeability of the compound across apical side to basolateral side in human Caco-2 cells incubated for 2 hrs by LC-MS/MS analysis
[5] = in vivo; conditions: Slc:ICR, mouse, po, 1 mg/kg
[6] = Half life in Slc:ICR mouse at 0.5 mg/kg, iv measured for 4 to 8 hrs by LC/MS/MS analysis; assay type: ADME, organism-based; conditions: in vivo, time 4-8 hrs
[7] = Total clearance in Slc:ICR mouse at 0.5 mg/kg, iv measured for 4 to 8 hrs by LC/MS/MS analysis; assay type: ADME, organism-based; conditions: in vivo, time 4-8 hrs
[8] = AUC (0 to 24 hrs) in Slc:ICR mouse at 1 mg/kg, po measured for 8 to 24 hrs by LC/MS/MS analysis; assay type: ADME, organism-based; set-up: dose 1 mg/kg, time upper 24 hrs, time lower 8 hrs, route po; conditions: in vivo
[9] = Oral bioavailability in Slc:ICR mouse at 1 mg/kg measured for 8 to 24 hrs by LC/MS/MS analysis; assay type: ADME, organism-based; conditions: in vivo, time 8-24 hrs
[10] = Volume of distribution in Slc:ICR mouse at 0.5 mg/kg, iv measured for 4 to 8 hrs by LC/MS/MS analysis; assay type: ADME, organism-based; conditions: in vivo, time 4-8 hrs
[11] = target: T1, Bromodomain-containing protein 4; test: Displacement of Biotin-tagged [Lys(5,8,12,16)Ac]H4(1 to 21) peptide from BRD4-BD2 (unknown origin) incubated for 3 hrs by HTRF based TR-FRET assay
[12] = target: Bromodomain-containing protein 2 (Homo sapiens, UniProt P25440); test: Displacement of Biotin-tagged [Lys(5,8,12,16)Ac]H4(1 to 21) peptide from GST-tagged BRD2-BD1 (unknown origin) incubated for 3 hrs by HTRF based TR-FRET assay
[13] = target: Bromodomain-containing protein 3 (Homo sapiens, UniProt Q15059); test: Displacement of Biotin-tagged [Lys(5,8,12,16)Ac]H4(1 to 21) peptide from GST-tagged BRD3-BD1 (unknown origin) incubated for 3 hrs by HTRF based TR-FRET assay
[14] = target: Bromodomain testis-specific protein (Homo sapiens, UniProt Q58F21); test: Displacement of Biotin-tagged [Lys(5,8,12,16)Ac]H4(1 to 21) peptide from GST-tagged BRDT-BD1 (unknown origin) incubated for 3 hrs by HTRF based TR-FRET assay
[15] = target: T1, Bromodomain-containing protein 4; test: Inhibition of NanoLuc-tagged full length BRD4 (unknown origin) transfected in HEK293 cells coexpressing histone H4-halo-tagged fusion vector preincubated overnight followed by substrate addition and measured after 10 mins by NanoBRET assay; assay type: cell-based
[16] = Antiproliferative activity against human A375.S2 cells assessed as inhibition of cell growth incubated for 72 hrs by WST-1 assay; assay type: functional, cell-based; conditions: A375-S2, 72 h
[17] = Antitumor activity against human A375.S2 cells xenografted CAnN.Cg-Foxnlnu/CrlCrlj mouse model assessed as reduction in tumor growth at 60 mg/kg administered twice daily for 14 days relative to control; assay type: functional; set-up: scale not given: the % may be the effect or the level left; conditions: time 14 day
[18] = Toxicity in CAnN.Cg-Foxnlnu/CrlCrlj mouse xenografted with human A375.S2 cells assessed as body weight loss at 30 to 60 mg/kg administered twice daily for 14 days; assay type: organism-based; conditions: in vivo, 336 h, dose 30-60 mg/kg, time 14 day
[19] = AUC (0 to 8 hrs) in Slc:ICR mouse at 1 mg/kg, po measured for 8 to 24 hrs by LC/MS/MS analysis; assay type: ADME, organism-based; set-up: time lower 8 hrs, dose 1 mg/kg, time upper 24 hrs, route po; conditions: in vivo

Bromodomain-containing protein 3, sequence (Q15059 whole entry): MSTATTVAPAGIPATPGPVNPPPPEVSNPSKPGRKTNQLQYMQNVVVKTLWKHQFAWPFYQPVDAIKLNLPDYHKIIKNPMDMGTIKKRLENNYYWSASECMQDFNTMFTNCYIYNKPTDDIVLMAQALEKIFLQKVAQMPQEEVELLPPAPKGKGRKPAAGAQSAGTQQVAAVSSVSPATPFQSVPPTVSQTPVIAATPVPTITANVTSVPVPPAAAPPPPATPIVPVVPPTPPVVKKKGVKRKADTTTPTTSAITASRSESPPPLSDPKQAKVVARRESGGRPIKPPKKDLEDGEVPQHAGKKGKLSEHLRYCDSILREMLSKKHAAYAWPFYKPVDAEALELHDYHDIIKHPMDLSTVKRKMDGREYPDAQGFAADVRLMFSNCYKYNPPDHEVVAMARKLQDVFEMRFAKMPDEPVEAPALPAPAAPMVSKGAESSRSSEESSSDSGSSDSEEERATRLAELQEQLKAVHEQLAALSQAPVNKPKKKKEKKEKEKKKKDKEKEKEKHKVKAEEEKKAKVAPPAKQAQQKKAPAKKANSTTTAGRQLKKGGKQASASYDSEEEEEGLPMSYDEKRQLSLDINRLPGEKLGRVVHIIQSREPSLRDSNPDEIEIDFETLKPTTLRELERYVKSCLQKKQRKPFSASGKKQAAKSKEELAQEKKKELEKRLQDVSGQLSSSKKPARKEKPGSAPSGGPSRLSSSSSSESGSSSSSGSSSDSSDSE
Bromodomain-containing protein 2, sequence (P25440 whole entry): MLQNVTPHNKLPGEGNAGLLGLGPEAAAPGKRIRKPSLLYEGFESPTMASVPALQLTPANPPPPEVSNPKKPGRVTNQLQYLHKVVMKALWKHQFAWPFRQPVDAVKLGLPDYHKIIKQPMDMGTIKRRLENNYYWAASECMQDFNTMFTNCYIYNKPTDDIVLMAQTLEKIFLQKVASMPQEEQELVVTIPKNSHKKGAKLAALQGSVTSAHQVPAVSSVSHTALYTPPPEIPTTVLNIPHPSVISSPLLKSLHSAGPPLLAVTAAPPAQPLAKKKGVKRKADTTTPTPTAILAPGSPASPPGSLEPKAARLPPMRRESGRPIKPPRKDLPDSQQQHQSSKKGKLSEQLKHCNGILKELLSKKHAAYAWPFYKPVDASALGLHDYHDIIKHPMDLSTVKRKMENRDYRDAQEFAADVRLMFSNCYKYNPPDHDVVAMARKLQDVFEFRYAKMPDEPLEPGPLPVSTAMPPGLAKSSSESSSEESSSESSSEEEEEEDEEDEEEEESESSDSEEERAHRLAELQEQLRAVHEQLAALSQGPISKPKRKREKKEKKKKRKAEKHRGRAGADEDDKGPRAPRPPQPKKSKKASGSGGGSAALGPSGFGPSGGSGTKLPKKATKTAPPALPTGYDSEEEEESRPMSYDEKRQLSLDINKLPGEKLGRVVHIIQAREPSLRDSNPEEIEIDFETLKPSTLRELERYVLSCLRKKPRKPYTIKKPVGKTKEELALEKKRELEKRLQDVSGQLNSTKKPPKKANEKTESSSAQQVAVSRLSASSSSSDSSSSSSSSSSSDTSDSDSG

SMILES | CLH [1] | CLH [2] | IC50 [3] | Papp A→B at 2 h [4] | also measured
Cc1cc(-c2ccc3c(c2)n(Cc2ccccc2)c(=O)n3CC(C)C)cn(C)c1=O | 352 mL/min | 491 mL/min | 42 nM | – | –
CC[S+]([O-])c1cc(-c2cc(C)c(=O)n(C)c2)cc2c1[nH]c(=O)n2Cc1ccccc1 (centres undefined) | – | – | 157 nM | – | –
CCS(=O)(=O)Cc1cc(-c2cc(C)c(=O)n(C)c2)cc2c1[nH]c(=O)n2Cc1ccccc1 | 11 mL/min | 11 mL/min | 4.2 nM | 0.02 ×10⁻⁶ cm/s | –
Cc1cc(-c2ccc3cnn(Cc4ccccc4)c3c2)cn(C)c1=O | 43 mL/min | 42 mL/min | 61 nM | – | –
CCS(=O)(=O)c1cc(-c2cc(C)c(=O)n(C)c2)cc2c1[nH]c(=O)n2Cc1ccccc1 | – | – | 112 nM | – | –
Cc1cc(-c2ccc3ncn(Cc4ccccc4)c3c2)cn(C)c1=O | 65 mL/min | 36 mL/min | – | – | Cmax [5]: < 1 ng/mL
Cc1cc(-c2cc3c4c(c2)n(Cc2ccccc2)c(=O)n4CCO3)cn(C)c1=O | – | 17 mL/min | 15 nM | 12 ×10⁻⁶ cm/s | half-life [6]: 4.1 h; clearance [7]: 3.3 mL/min; AUC(0-t) [8]: 2420 ng·h/mL; bioavailability [9]: 49%; Vd [10]: 1.18 L/kg; IC50 [11]: 55 nM; IC50 [12]: 19 nM; IC50 [13]: 25 nM; IC50 [14]: 68 nM; IC50 [15]: 81 nM; IC50 [16]: 539 nM; Activity [17]: 41%; Activity [18]: Non-Toxic; Cmax [5]: 299 ng/mL
CCS(=O)(=O)NCc1cc(-c2cc(C)c(=O)n(C)c2)cc2c1[nH]c(=O)n2Cc1ccccc1 | 43 mL/min | 66 mL/min | 12 nM | 0.11 ×10⁻⁶ cm/s | –
Cc1cc(-c2ccc3c(c2)n(Cc2ccccc2)c(=O)n3C)cn(C)c1=O | 25 mL/min | 20 mL/min | 50 nM | 21 ×10⁻⁶ cm/s | –
Cc1cc(-c2ccc3c(c2)N(Cc2ccccc2)C(=O)CN3)cn(C)c1=O | – | – | 122 nM | – | –
Cc1cc(-c2ccc3[nH]c(=O)n(Cc4ccccc4)c3c2)cn(C)c1=O | 29 mL/min | 15 mL/min | 32 nM | 5.9 ×10⁻⁶ cm/s | clearance [7]: 40 mL/min; AUC(0-t) [19]: 178 ng·h/mL; bioavailability [9]: 70%; Cmax [5]: 37 ng/mL
CCS(=O)(=O)Nc1cc(-c2cc(C)c(=O)n(C)c2)cc2c1[nH]c(=O)n2Cc1ccccc1 | < 9.6 mL/min | < 9.6 mL/min | 19 nM | 0.05 ×10⁻⁶ cm/s | –
CCS(=O)(=O)Cc1cc(-c2cc(C)c(=O)n(C)c2)cc2c1n(C)c(=O)n2Cc1ccccc1 | 14 mL/min | 34 mL/min | 4.8 nM | – | –
CCS(=O)(=O)NCc1cc(-c2cc(C)c(=O)n(C)c2)cc2c1n(C)c(=O)n2Cc1ccccc1 | 37 mL/min | 53 mL/min | 39 nM | 0.03 ×10⁻⁶ cm/s | –
COCCn1c(=O)n(Cc2ccccc2)c2cc(-c3cc(C)c(=O)n(C)c3)ccc21 | – | – | 45 nM | – | –
Cc1cc(-c2ccc3ccn(Cc4ccccc4)c3c2)cn(C)c1=O | – | – | 94 nM | – | –
Cc1cc(-c2ccc3c(c2)n(Cc2ccccc2)c(=O)n3C(C)C)cn(C)c1=O | 27 mL/min | 38 mL/min | 25 nM | 14 ×10⁻⁶ cm/s | –
Cc1cc(-c2ccc3nnn(Cc4ccccc4)c3c2)cn(C)c1=O | 49 mL/min | 23 mL/min | 38 nM | – | –
